Structures can show the parent of a compound that is named as a salt.

In the case of `CCCc1cc(O)cc2cc(-c3ccc(O)cc3)oc12` (as salt: HCl) [Example 35, 2-(4-Hydroxy-phenyl)-7-propyl-benzofuran-5-ol], the melting point (commonly the temperature, or range, at which the solid turns liquid) is 178 to 180 °C.

In the case of `Oc1ccc(-c2cc3cc(O)ccc3o2)c(-c2ccc(OCCN3CCCC3)cc2)c1` (as salt: hydrochloride) [Example 108, 2-[5-Hydroxy-4′-(2-pyrrolidin-1-yl-ethoxy)-biphenyl-2-yl]-benzofuran-5-ol], the melting point lay in the range of 266 to 269 °C.

As to `COc1ccc(-c2cc3cc(OC)cc(CO)c3o2)cc1` [Example 3, [5-Methoxy-2-(4-methoxy-phenyl)-benzofuran-7-yl]-methanol], the melting point is 128 to 130 °C.

`Oc1ccc(-c2cc3cc(O)cc(CBr)c3o2)cc1` [Example 4, 7-Bromomethyl-2-(4-hydroxy-phenyl)-benzofuran-5-ol] registered a melting point of 337 to 339 °C.

Regarding `COCc1cc(O)cc2cc(-c3ccc(O)cc3)oc12` [Example 6, 2-(4-Hydroxy-phenyl)-7-methoxymethyl-benzofuran-5-ol], the melting point lay within 186 to 188 °C.

For the compound `CCOCc1cc(O)cc2cc(-c3ccc(O)cc3)oc12` [Example 7, 7-Ethoxymethyl-2-(4-hydroxy-phenyl)-benzofuran-5-ol], the melting point is 166 to 168 °C.

Consider `CC(C)OCc1cc(O)cc2cc(-c3ccc(O)cc3)oc12` [Example 8, 2-(4-Hydroxy-phenyl)-7-isopropoxymethyl benzofuran-5-ol], for which the melting point was in the range of 195 to 197 °C.

The compound `CSCc1cc(O)cc2cc(-c3ccc(O)cc3)oc12` [Example 10, 2-(4-Hydroxy-phenyl)-7-methylsulfanylmethyl-benzofuran-5-ol] displayed a melting point of 188 to 190 °C.

`CCSCc1cc(O)cc2cc(-c3ccc(O)cc3)oc12` [Example 11, 7-Ethylsulfanylmethyl-2-(4-hydroxy-phenyl)-benzofuran-5-ol] came in with a melting point of 181 to 183 °C.

In turn, `Oc1ccc(-c2cc3cc(O)cc(CSc4ccccc4)c3o2)cc1` [Example 12, 2-(4-Hydroxy-phenyl)-7-phenylsulfanylmethyl-benzofuran-5-ol] displayed a melting point of 175 to 177 °C.

For the compound `N#CSCc1cc(O)cc2cc(-c3ccc(O)cc3)oc12` [Example 15, 2-(4-Hydroxy-phenyl)-7-thiocyanatomethyl-benzofuran-5-ol], the melting point was 190 to 192 °C.

Compound `Oc1ccc(-c2cc3cc(O)cc(Cn4ccnc4)c3o2)cc1` [Example 16, 2-(4-Hydroxy-phenyl)-7-imidazol-1-ylmethyl-benzofuran-5-ol] yielded a melting point of 269 to 271 °C.

In turn, `CC(C#N)c1cc(O)cc2cc(-c3ccc(O)cc3)oc12` (stereo not drawn) [Example 21, 2-[5-Hydroxy-2-(4-hydroxy-phenyl)-benzofuran-7-yl]-propionitrile] showed a melting point of 183 to 185 °C.

`CC(C)(C#N)c1cc(O)cc2cc(-c3ccc(O)cc3)oc12` [Example 22, 2-[5-Hydroxy-2-(4-hydroxy-phenyl)-benzofuran-7-yl]-2-methyl-propionitrile] had a melting point of 284 °C.

With `O=C(O)c1cc(O)cc2cc(-c3ccc(O)cc3)oc12` [Example 24, 5-Hydroxy-2-(4-hydroxy-phenyl)-benzofuran-7-carboxylic acid], the melting point is 260 to 262 °C.

`OCc1cc(O)cc2cc(-c3ccc(O)cc3)oc12` [Example 25, 7-Hydroxymethyl-2-(4-hydroxy-phenyl)-benzofuran-5-ol] had a melting point of 258 to 260 °C.

`CCc1cc(O)cc2cc(-c3ccc(O)cc3)oc12` [Example 30, 7-Ethyl-2-(4-hydroxy-phenyl)-benzofuran-5-ol] showed a melting point of 218 to 220 °C.

Turning to `CC(C)OC(=O)c1cc(O)cc2cc(-c3ccc(O)cc3)oc12` [Example 36, 5-Hydroxy-2(4hydroxy-phenyl)-benzofuran-7-carboxylic acid Isopropyl ester], the melting point was greater than 250 °C.

These data come from patent publication US7022733B2, “Substituted 2-phenyl benzofurans as estrogenic agents” (Wyeth, priority 2001, dated 2006).
